Source: ChEMBL document CHEMBL1157323, “Chloriolide, a 12-membered macrolide from Chloridium virescens var. chlamydosporum (NRRL 37636)” (J Nat Prod, 2006)
Calls of active or inactive are those of the source.

How the values were obtained:
Format in all cases: functional, organism-based
Aspergillus flavus = test: Antifungal activity against Aspergillus flavus NRRL 6541 at 200 ug/disk by standard disk assay
Fusarium verticillioides = test: Antifungal activity against Fusarium verticillioides NRRL 25457 at 200 ug/disk by standard disk assay
Staphylococcus aureus = test: Antibacterial activity against Staphylococcus aureus ATCC 29213
Escherichia coli = test: Antibacterial activity against Escherichia coli ATCC 25922
Bacillus subtilis = test: Antibacterial activity against Bacillus subtilis ATCC 6051

Measured: Activity

C[C@H]1CCC[C@@H](O)/C=C\[C@H](O)/C=C/C(=O)O1
inactive: Aspergillus flavus | Fusarium verticillioides | Staphylococcus aureus | Escherichia coli | Bacillus subtilis
